Our source for the Ratio values is ChEMBL document CHEMBL1156111, “Identification of the amino acid-AZT-phosphoramidase by affinity T7 phage display selection” (Bioorg Med Chem Lett, 2009).

The target in this test is Adenosine 5'-monophosphoramidase HINT1 (Homo sapiens) (UniProt P49773). The experiment in a line: Ratio of kcat to km for human HINT1.
Sequence of Adenosine 5'-monophosphoramidase HINT1 (Homo sapiens) (P49773 whole entry): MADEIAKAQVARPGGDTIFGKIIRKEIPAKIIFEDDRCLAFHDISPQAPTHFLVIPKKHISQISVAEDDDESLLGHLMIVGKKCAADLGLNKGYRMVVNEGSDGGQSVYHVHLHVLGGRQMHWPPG

Regarding `Cc1cn([C@H]2C[C@H](N=[N+]=[N-])[C@@H](COP(=O)(O)NCc3c[nH]c4ccccc34)O2)c(=O)[nH]c1=O`, the Ratio was 25.
